Laboratory results taken from ChEMBL document CHEMBL2385068, “2-Aminobenzothiazole derivatives: search for new antifungal agents” (Eur J Med Chem, 2013).
≈ marks a conversion by molar mass, not a printed value.

What was measured:
Candida albicans = experiment: Antifungal activity against Candida albicans ATCC 10231 after 24 to 48 hrs by broth microdilution method; format: functional
Pichia kudriavzevii [1] = experiment: Antifungal activity against Candida krusei ATCC 6258 after 24 to 48 hrs by broth microdilution method; format: functional
Enterococcus faecalis = experiment: Antibacterial activity against Enterococcus faecalis ATCC 29212 after 24 hrs by broth microdilution method; format: functional; conditions: ATCC 29212, 24 h
Escherichia coli = experiment: Antibacterial activity against Escherichia coli ATCC 25922 after 24 hrs by broth microdilution method; format: functional; conditions: ATCC 25922, 24 h
Candida parapsilosis = experiment: Antifungal activity against Candida parapsilosis ATCC 22019 after 24 to 48 hrs by broth microdilution method; format: functional; conditions: Lodderomyces parapsilosis
Candida tropicalis = experiment: Antifungal activity against Candida tropicalis ATCC 750 after 24 to 48 hrs by broth microdilution method; format: functional
Staphylococcus aureus = experiment: Antibacterial activity against Staphylococcus aureus ATCC 29213 after 24 hrs by broth microdilution method; format: functional; conditions: ATCC 29213, 24 h
Pichia kudriavzevii [2] = experiment: Ratio of fluconazole MIC to compound MIC for Candida krusei ATCC 6258; format: functional
THP-1 [3] = experiment: Cytotoxicity against human THP1 cells at 4 times MIC after 24 hrs by trypan blue exclusion assay; format: cell-based; conditions: thp-1, 24 h
THP-1 [4] = experiment: Cytotoxicity against human THP1 cells assessed as release of lactate dehydrogenase at 4 times MIC after 24 hrs; format: cell-based; conditions: thp-1, 24 h
THP-1 [5] = experiment: Cytotoxicity against human THP1 cells assessed as release of lactate dehydrogenase at 10 times MIC after 24 hrs; format: cell-based; conditions: thp-1, 24 h

Row | SMILES | MIC (Candida albicans) | MIC (Pichia kudriavzevii [1]) | MIC (Enterococcus faecalis) | MIC (Escherichia coli) | MIC (Candida parapsilosis) | MIC (Candida tropicalis) | MIC (Staphylococcus aureus) | Ratio (Pichia kudriavzevii [2]) | Activity (THP-1 [3]) | Activity (THP-1 [4]) | Activity (THP-1 [5])
1 | Nc1nc2ccc(Oc3ccccc3)cc2s1 | 128 µg/mL (≈ 528 µM) | 32 µg/mL (≈ 132 µM) | > 512 µg/mL | > 512 µg/mL | 16 µg/mL (≈ 66 µM) | 32 µg/mL (≈ 132 µM) | > 512 µg/mL | – | – | – | –
2 | Nc1nc2ccc(OCCc3ccccc3)cc2s1 | 8 µg/mL (≈ 29.6 µM) | 16 µg/mL (≈ 59.2 µM) | 128 µg/mL (≈ 473 µM) | > 512 µg/mL | 16 µg/mL (≈ 59.2 µM) | 32 µg/mL (≈ 118 µM) | > 512 µg/mL | 2 | – | – | –
3 | Nc1nc2ccc(OCCCc3ccccc3)cc2s1 | 32 µg/mL (≈ 113 µM) | 16 µg/mL (≈ 56.3 µM) | 128 µg/mL (≈ 450 µM) | > 512 µg/mL | 16 µg/mL (≈ 56.3 µM) | 16 µg/mL (≈ 56.3 µM) | 512 µg/mL (≈ 1800 µM) | 2 | – | – | –
4 | Nc1nc2ccc(OCCCCc3ccccc3)cc2s1 | 512 µg/mL (≈ 1720 µM) | > 512 µg/mL | 256 µg/mL (≈ 858 µM) | > 512 µg/mL | 128 µg/mL (≈ 429 µM) | 512 µg/mL (≈ 1720 µM) | 512 µg/mL (≈ 1720 µM) | – | – | – | –
5 | Nc1nc2ccc(COc3ccccc3)cc2s1 | 32 µg/mL (≈ 125 µM) | 64 µg/mL (≈ 250 µM) | 128 µg/mL (≈ 499 µM) | > 512 µg/mL | 16 µg/mL (≈ 62.4 µM) | 16 µg/mL (≈ 62.4 µM) | 256 µg/mL (≈ 999 µM) | – | – | – | –
6 | Nc1nc2ccc(OCc3ccc(Cl)cc3)cc2s1 | 4 µg/mL (≈ 13.8 µM) | 64 µg/mL (≈ 220 µM) | 256 µg/mL (≈ 880 µM) | > 512 µg/mL | 8 µg/mL (≈ 27.5 µM) | 4 µg/mL (≈ 13.8 µM) | 256 µg/mL (≈ 880 µM) | – | Toxic | Toxic | –
7 | Nc1nc2ccc(Oc3ccc(Cl)cc3)cc2s1 | 8 µg/mL (≈ 28.9 µM) | 32 µg/mL (≈ 116 µM) | 512 µg/mL (≈ 1850 µM) | > 512 µg/mL | 4 µg/mL (≈ 14.5 µM) | 8 µg/mL (≈ 28.9 µM) | 512 µg/mL (≈ 1850 µM) | – | – | – | Non-toxic
8 | Nc1nc2ccc(OCc3ccccc3)cc2s1 | 8 µg/mL (≈ 31.2 µM) | 64 µg/mL (≈ 250 µM) | > 512 µg/mL | > 512 µg/mL | 8 µg/mL (≈ 31.2 µM) | 8 µg/mL (≈ 31.2 µM) | > 512 µg/mL | – | – | – | –
9 | Nc1nc2ccc(C(F)(F)F)cc2s1 | 16 µg/mL (≈ 73.3 µM) | 64 µg/mL (≈ 293 µM) | 256 µg/mL (≈ 1170 µM) | > 512 µg/mL | 64 µg/mL (≈ 293 µM) | 64 µg/mL (≈ 293 µM) | 256 µg/mL (≈ 1170 µM) | – | – | – | –
10 | CCOc1ccc2nc(N)sc2c1 | 128 µg/mL (≈ 659 µM) | 256 µg/mL (≈ 1320 µM) | 512 µg/mL (≈ 2640 µM) | > 512 µg/mL | 128 µg/mL (≈ 659 µM) | 128 µg/mL (≈ 659 µM) | 512 µg/mL (≈ 2640 µM) | – | – | – | –
11 | COc1ccc2nc(N)sc2c1 | 256 µg/mL (≈ 1420 µM) | 512 µg/mL (≈ 2840 µM) | 128 µg/mL (≈ 710 µM) | > 512 µg/mL | 256 µg/mL (≈ 1420 µM) | 256 µg/mL (≈ 1420 µM) | 128 µg/mL (≈ 710 µM) | – | – | – | –
12 | OC(Cn1cncn1)(Cn1cncn1)c1ccc(F)cc1F [FLUCONAZOLE] | 2 µg/mL (≈ 6.53 µM) | 32 µg/mL (≈ 104 µM) | – | – | 2 µg/mL (≈ 6.53 µM) | 4 µg/mL (≈ 13.1 µM) | – | – | – | – | –
13 | CCn1cc(C(=O)O)c(=O)c2cc(F)c(N3CCNCC3)cc21 [NORFLOXACIN] | – | – | 4 µg/mL (≈ 12.5 µM) | 0.03 µg/mL (≈ 0.0939 µM) | – | – | 0.5 µg/mL (≈ 1.57 µM) | – | – | – | –
14 | Nc1nc2ccc(OC(F)(F)F)cc2s1 [RILUZOLE] | 64 µg/mL (≈ 273 µM) | 128 µg/mL (≈ 547 µM) | 512 µg/mL (≈ 2190 µM) | 512 µg/mL (≈ 2190 µM) | 64 µg/mL (≈ 273 µM) | 128 µg/mL (≈ 547 µM) | 256 µg/mL (≈ 1090 µM) | – | – | – | –
